Test [1] has as its system benzodiazepine site of GABAA. The experiment in a line: Binding assay, benzodiazepine site of GABAA (binding assay 1: rat brain, (3H)-flunitrazepam; binding assay 2: bovine hippocampal membranes, [3H]-RY80). Conditions: radioligand binding; for % Inhibition at 0.1 μM: 0.1 μM test compound; for % Inhibition at 10 μM: 10 μM test compound. The method, boiled down: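 Assay 1: rat whole-brain (minus cerebellum) membranes in Na–K phosphate pH 7.4, 1 nM (3H)-flunitrazepam, 60 min at 25° C., ± 30 μM GABA; nonspecific with 10 μM diazepam. Assay 2: bovine hippocampal membranes, 0.8 nM [3H]-RY80 in 50 mM Tris-Citrate pH 7.8/200 mM NaCl, 60 min at 0-4° C.; nonspecific with 0.5 μM L-655,708. Filtration read-out.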

In the next test the test system is GABAA receptors. In words: Electrophysiology assay, two-electrode voltage clamp in Xenopus oocytes expressing GABAA receptors. Type of test: cell-based. The note with it: GABA EC10, screening concentration of 10 μM, subunit combination not stated. The procedure: mRNA was prepared from lyophilized plasmid pellets containing cDNA inserts encoding the specific GABAA receptor subunit. cDNAs encoding the α2, α3, and γ3 subunits were subcloned into pBluescript, SK^−. cDNAs encoding the α1 and α5 subunits were subcloned into prC while cDNA encoding the β2 subunit was subcloned into pcDNA1. The cDNA construct encoding the γ2s subunit is in the pGH19 expression construct. Overnight cultures of transformed DH5a bacterial cells were performed to grow sufficient quantities for maxiprep isolation of the plasmid cDNA. The resulting plasmid cDNA was linearized by digestion with an appropriate restriction enzyme that cleaves distal to the cDNA insert (XbaI for α1,2, β2, and γ3 or NotI for α3,5 and γ2, respectively). Following digestion, plasmid cDNA was treated with proteinase K and extracted with phenol/chloroform/isoamyl alcohol, followed by ethanol precipitation. cDNA quality was assessed by agarose-gel electrophoresis (1.5% agarose gel). Samples were stored at −20° C. until use. In vitro transcription was performed with T7 RNA polymerase. mRNA was then stored at −80° C. until use. Plasmids were linearized with appropriate restriction enzymes before in vitro transcription using the Message Machine kit (Ambion, Austin, Tex.).
GABAA Receptor Expression in Xenopus oocytes.
GABAA receptor expression in Xenopus oocytes: Following 45 min of 0.15% Tricaine anesthesia, an ovarian section containing the follicular oocytes was removed from the frog through a lateral abdominal incision. Oocytes were immediately placed in a calcium-free solution (NaCl 96 mM, MgCl2 1 mM, KCl 2 mM, Hepes 50 mM, pyruvate 2.5 mM, gentamycin 100 μg/mL, penicillin-streptomycin 50 U/mL, pH 7.4). Following 1.5-2 hour incubation in 0.2% collagenase (type II, Sigma Chemical Co., St. Louis, Mo.) at room temperature, individual Dumont stage V and VI oocytes were transferred to an incubator and maintained overnight in Barth's solution (NaCl 84 mM, NaHCO3 2.4 mM, MgSO4 0.82 mM, KCl 1 mM, Ca(NO3)2 0.33 mM, CaCl2 0.41 mM, Tris/HCl 7.5 mM, pyruvate 2.5 mM, gentamycin 50 μg/mL, penicillin-streptomycin, 100 units/mL, pH 7.4) at 18-20° C. and used for experiments 1-5 days post-injection. Oocytes were injected solution using an electronic microinjector (Drummond, Broomall, Pa.) with 50 nL of RNA containing 0.3-0.5 ng of each subunit RNA in a 1:1:1 ratio. The injected oocytes were used for experiments after 1-5 days of incubation in Barth's solution at 18-20° C.
Measurements of ion currents from oocytes expressing GABAA receptors were performed using a Warner two-electrode voltage-clamp amplifier (Warner Instruments, Inc., Foster City, Calif.) (Park-Chung, M., et al. (1999) Brain Res. 830: 72-87 incorporated herein in its entirety). Microelectrodes were fabricated from borosilicate glass capillaries with a programmed pipette puller (Sutter Instrument Co., Calif.). Microelectrode resistance was 1-3 MΩ when filled with 3 M KCl. The oocyte recording chamber was continuously perfused with Ringer solution. Oocytes were clamped at a holding potential of −70 mV during data acquisition. The membrane current was filtered at 10 Hz and sampled at 100 Hz. Compounds were applied by a gravity-driven external perfusion system. The working volume of the recording chamber was 30 μL and the rate of the perfusion was approximately 50 μL/sec. Compound application was 10-20 sec followed by a 90 sec wash. Data acquisition and external perfusion was computer controlled by custom-developed software. All experiments were performed at room temperature (22-24° C.). Dose-response data from each oocyte were fitted to the Hill equation by non-linear regression using the equation: IGABA=Emax/(1+(EC50/c)^n^H)
Emax is the maximum response, EC50 is the concentration producing 50% of the maximal response, nH is the Hill coefficient and c is the concentration of agonist. […]

Structures can show the parent of a compound that is named as a salt.

Take `CC(C)NC(=O)n1ncc2c3nn(-c4ccccn4)c(=O)c-3c[nH]c21` [Compound 6n, N-isopropyl-3-oxo-2-(pyridin-2-yl)-2,3-dihydrodipyrazolo[3,4-b:3′,4′-d]pyridine-6(5H)-carboxamide]: in test [1], the “% Inhibition at 0.1 μM” value was “C (C indicates % inhibition <20%)” and the “% Inhibition at 10 μM” value is reported as “C (C indicates % inhibition <20%)”. For the same compound, in the test on GABAA receptors, the “EP Modulation” value is reported as “E (E indicates negative modulation <20%)”.

On to `CCNC(=O)n1ncc2c3nn(-c4ccc(Cl)cc4)c(=O)c-3c[nH]c21` [Compound 6o], for which, in test [1], the “% Inhibition at 0.1 μM” value is “B (B indicates % inhibition <80% and >20%)”; the “% Inhibition at 10 μM” value is recorded as “A (A indicates % inhibition >80%)”. The “EP Modulation” value with GABAA receptors is on record as “E (E indicates negative modulation <20%)”.

`CCNC(=O)n1ncc2c3nn(-c4ccsc4)c(=O)c-3c[nH]c21` [Compound 6u, N-ethyl-3-oxo-2-(thiophen-3-yl)-2,3-dihydrodipyrazolo[3,4-b:3′,4′-d]pyridine-6(5H)-carboxamide]: the “% Inhibition at 10 μM” value in test [1] is reported as “A (A indicates % inhibition >80%)”. Besides, the “EP Modulation” value with GABAA receptors is given as “D (D indicates negative modulation >20%)”.

With `CCNC(=O)n1ncc2c3nn(-c4ccc(Br)cc4)c(=O)c-3c[nH]c21` [Compound 6w, 2-(4-bromophenyl)-N-ethyl-3-oxo-2,3-dihydrodipyrazolo[3,4-b:3′,4′-d]pyridine-6(5H)-carboxamide.TFA], the “% Inhibition at 10 μM” value in test [1] is given as “A (A indicates % inhibition >80%)”. For the same compound, in the test on GABAA receptors, the “EP Modulation” value is “E (E indicates negative modulation <20%)”.

Turning to `CCNC(=O)n1ncc2c3nn(-c4ccc(C(C)C)cc4)c(=O)c-3c[nH]c21` [Compound 6z, N-ethyl-2-(4-isopropylphenyl)-3-oxo-2,3-dihydrodipyrazolo[3,4-b:3′,4′-d]pyridine-6(5H)-carboxamide. TFA], the “% Inhibition at 10 μM” value in test [1] was “A (A indicates % inhibition >80%)”. Besides, in the test with GABAA receptors, the “EP Modulation” value is reported as “E (E indicates negative modulation <20%)”.

With `CN(C)CCNC(=O)n1ncc2c3nn(-c4ccccc4)c(=O)c-3c[nH]c21` [Compound 7a, N-(2-(dimethylamino)ethyl)-3-oxo-2-phenyl-2,3-dihydrodipyrazolo[3,4-b:3′,4′-d]pyridine-6(5H)-carboxamide], in test [1], the “% Inhibition at 0.1 μM” value was “C (C indicates % inhibition <20%)”; the “% Inhibition at 10 μM” value is “B (B indicates % inhibition <80% and >20%)”. Moreover, the “EP Modulation” value in the test with GABAA receptors is recorded as “E (E indicates negative modulation <20%)”.

Turning to `O=C(NCC(F)(F)F)n1ncc2c3nn(-c4ccccc4)c(=O)c-3c[nH]c21` [Compound 7b, 3-oxo-2-phenyl-N-(2,2,2-trifluoroethyl)-2,3-dihydrodipyrazolo[3,4-b:3′,4′-d]pyridine-6(5H)-carboxamide], in test [1], the “% Inhibition at 0.1 μM” value was “B (B indicates % inhibition <80% and >20%)”; the “% Inhibition at 10 μM” value is reported as “A (A indicates % inhibition >80%)”. Also, the “EP Modulation” value in the test on GABAA receptors is reported as “D (D indicates negative modulation >20%)”.

For `CC(C)N1CCN(C(=O)n2ncc3c4nn(-c5ccccc5)c(=O)c-4c[nH]c32)CC1` [Compound 7d, 6-(4-isopropylpiperazine-1-carbonyl)-2-phenyl-5,6-dihydrodipyrazolo[3,4-b:3′,4′-d]pyridin-3(2H)-one], in test [1], the “% Inhibition at 0.1 μM” value is given as “C (C indicates % inhibition <20%)” and the “% Inhibition at 10 μM” value is given as “C (C indicates % inhibition <20%)”. The “EP Modulation” value in the test with GABAA receptors is on record as “Positive”.

On to `CNC(=O)n1cc2[nH]cc3c(=O)n(-c4ccccc4)nc-3c2c1` [Compound 13a, N-Methyl-3-oxo-2-phenyl-2,3-dihydropyrazolo[3,4-d]pyrrolo[3,4-b]pyridine-7(5H)-carboxamide], for which, in test [1], the “% Inhibition at 0.1 μM” value is given as “A (A indicates % inhibition >80%)” and the “% Inhibition at 10 μM” value was “A (A indicates % inhibition >80%)”. Also, in the test with GABAA receptors, the “EP Modulation” value is “D (D indicates negative modulation >20%)”.

As to `CCNC(=O)n1cc2[nH]cc3c(=O)n(-c4ccccc4)nc-3c2c1` [Compound 13b, N-Ethyl-3-oxo-2-phenyl-2,3-dihydropyrazolo[3,4-d]pyrrolo[3,4-b]pyridine-7(5H)-carboxamide], in test [1], the “% Inhibition at 0.1 μM” value is listed as “A (A indicates % inhibition >80%)” and the “% Inhibition at 10 μM” value is “A (A indicates % inhibition >80%)”. Further, in the test on GABAA receptors, the “EP Modulation” value is “D (D indicates negative modulation >20%)”.

Turning to `CCCNC(=O)n1cc2[nH]cc3c(=O)n(-c4ccccc4)nc-3c2c1` [Compound 13c, 3-Oxo-2-phenyl-N-propyl-2,3-dihydropyrazolo[3,4-d]pyrrolo[3,4-b]pyridine-7(5H)-carboxamide], in test [1], the “% Inhibition at 0.1 μM” value is “A (A indicates % inhibition >80%)” and the “% Inhibition at 10 μM” value is reported as “A (A indicates % inhibition >80%)”. Also, the “EP Modulation” value in the test on GABAA receptors was “D (D indicates negative modulation >20%)”.

On to `CCNC(=O)n1cc2[nH]cc3c(=O)n(-c4ccccc4F)nc-3c2c1` [Compound 13d, N-Ethyl-2-(2-fluorophenyl)-3-oxo-2,3-dihydropyrazolo[3,4-d]pyrrolo[3,4-b]pyridine-7(5H)-carboxamide], for which, in test [1], the “% Inhibition at 0.1 μM” value was “B (B indicates % inhibition <80% and >20%)”; the “% Inhibition at 10 μM” value is reported as “A (A indicates % inhibition >80%)”. In the test with GABAA receptors, the “EP Modulation” value is “D (D indicates negative modulation >20%)”.

Consider `CCCCNC(=O)n1cc2[nH]cc3c(=O)n(-c4ccccc4F)nc-3c2c1` [Compound 13e, N-butyl-2-(2-fluorophenyl)-3-oxo-2,3-dihydropyrazolo[3,4-d]pyrrolo[3,4-b]pyridine-7(5H)-carboxamide], for which, in test [1], the “% Inhibition at 0.1 μM” value is “B (B indicates % inhibition <80% and >20%)”; the “% Inhibition at 10 μM” value was “A (A indicates % inhibition >80%)”. Further, the “EP Modulation” value in the test on GABAA receptors is listed as “E (E indicates negative modulation <20%)”.

As for `CCNC(=O)n1cc2[nH]cc3c(=O)n(-c4ccc(F)cc4)nc-3c2c1` [Compound 13f, N-Ethyl-2-(4-fluorophenyl)-3-oxo-2,3-dihydropyrazolo[3,4-d]pyrrolo[3,4-b]pyridine-7(5H)-carboxamide], in test [1], the “% Inhibition at 0.1 μM” value is “A (A indicates % inhibition >80%)” and the “% Inhibition at 10 μM” value was “A (A indicates % inhibition >80%)”. For the same compound, the “EP Modulation” value in the test with GABAA receptors is “D (D indicates negative modulation >20%)”.

As to `CCNC(=O)n1cc2[nH]cc3c(=O)n(-c4ccc(F)cc4F)nc-3c2c1` [Compound 13g, 2-(2,4-Difluorophenyl)-N-ethyl-3-oxo-2,3-dihydropyrazolo[3,4-d]pyrrolo[3,4-b]pyridine-7(5H)-carboxamide], in test [1], the “% Inhibition at 0.1 μM” value was “B (B indicates % inhibition <80% and >20%)”; the “% Inhibition at 10 μM” value is “A (A indicates % inhibition >80%)”. Also, in the test with GABAA receptors, the “EP Modulation” value was “D (D indicates negative modulation >20%)”.

Regarding `CCCCNC(=O)n1cc2[nH]cc3c(=O)n(-c4ccccc4)nc-3c2c1` [Compound 13i, N-Butyl-3-oxo-2-phenyl-2,3-dihydropyrazolo[3,4-d]pyrrolo[3,4-b]pyridine-7(5H)-carboxamide], in test [1], the “% Inhibition at 0.1 μM” value was “A (A indicates % inhibition >80%)” and the “% Inhibition at 10 μM” value is given as “A (A indicates % inhibition >80%)”. Further, the “EP Modulation” value in the test on GABAA receptors is given as “E (E indicates negative modulation <20%)”.

The record behind these values is US9012470B2 (Dart NeuroScience (Cayman) Ltd., priority 2010, dated 2015).
